{
  "source": "patent US20240052305A1",
  "about": "“CHEMICAL INDUCTION METHOD FOR PHOTORECEPTOR NEURON CELLS” (IREGENE THERAPEUTICS LTD, priority 2020, published 2024)",
  "key": {"ectoderm cells [1]": {"tested_on": "ectoderm cells", "experiment": "Differentiation of ectoderm cells into photoreceptor neuron cells with AM580 (morphology, Q-PCR, immunofluorescence)", "format": "cell-based, human", "protocol": "The ectoderm cells obtained by the NouvNeu system in Example 2 were subjected to directed differentiation in NouvNeu medium. For differentiation, a 6-well culture plate was coated by 50 ug/ml poly-lysine (SIGMA, P6407), incubated in an incubator at 37° C. for more than 3 hours until cells were seeded.\nThe photoreceptor neuron cell induction medium of the present invention was obtained by supplementing the NouvNeu-basal base medium with 55 nM-25 uM LY2157299 (with an optimal concentration of 7.5 uM) (preferably 100 nM, 300 nM, 500 nM, 700 nM, 900 nM, 1 uM, 2.5 uM, 5 uM, 7.5 uM, 10 uM, 12.5 uM, 15 uM, 17.5 uM, 20 uM or 22 uM) and 0.05-0.95 uM AM580 (Selleck) (with an optimal concentration of 0.5 uM) (preferably 0.08 uM, 0.09 uM, 0.1 uM, 0.2 uM, 0.3 uM, 0.5 uM, 0.6 uM, 0.7 uM, 0.8 uM, 0.9 uM). The cells were cultured until photoreceptor neuron cell were formed. A control experiment was performed by adding 0.5 uM retinoic acid to the NouvNeu medium, hereinafter referred to as RA.\nThe screening test of AM580 concentration was carried out with reference to Example 2.3, and the expression difference of photoreceptor neuron cells obtained by using different concentrations of AM580 in the AM580 induction method and the LSB induction method was compared. See Table 2 and Table 4 for the details of primers used. […] In combination with the effect of AM580 on the expression of photoreceptor neuron-specific genes shown in FIG. 4, it could be concluded that the concentrations of AM580 used in the present invention are within the range of optimal concentration.\nThe medium was replaced with fresh medium every 3 days until day 21. The conditions for culture were at 37° C., 5% CO2 (Panasonic, MCO-18AC). After the induction was completed, the samples in experimental group and control group were respectively identified by immunofluorescence staining as follows: cells were fixed with 4% paraformaldehyde at room temperature for 40 minutes, washed twice with DPBS buffer; then permeabilized with 0.1% Triton X-100 for 5 minutes, washed twice with DPBS buffer; then incubated overnight at 4° C. with DPBS buffer containing 10% horse serum and 0.1% Triton X-100; added with a primary antibody diluted in DPBS buffer containing 2% horse serum and 0.1% Triton X-100, incubated at 37° C. for two hours, and washed three times with DPBS buffer, added with a secondary antibody diluted in DPBS buffer containing 2% horse serum and 0.1% Triton X-100, and then photographed.\nTranscription changes of different marker genes during induction from ectoderm cells to photoreceptor neuron cells were detected by Q-PCR. The photoreceptor cells obtained by using the present invention and different concentrations of AM580, and the photoreceptor cells obtained by the RA control induction method were respectively extracted with RNeasy Mini or Micro Kit (QIAGEN) for total RNA, and cDNA was synthesized by […] RNA via SuperScript III First-Strand Synthesis System (Invitrogen). SYBR Premix Ex Taq (TaKaRa) and Thermal Cycler Dice Real Time System (TaKaRa) were used for labeling and reaction of Quantitative PCR, and beta-Actin was used as internal control. All data were analyzed by delta-Ct method. Three replicates were used for each group of experiments, and ANOVA was performed."}, "[2]": {"tested_on": "human pluripotent stem cells", "experiment": "Chemical induction of ectoderm cells from pluripotent stem cells with different concentrations of LY2157299 (morphology, Q-PCR)", "format": "cell-based", "protocol": "The ectoderm cell induction medium of the present invention was obtained by supplementing the NouvNeu-basal base medium with 55 nM-25 uM LY2157299 (Selleck) (with an optimal concentration of 7.5 uM) (preferably 100 nM, 300 nM, 500 nM, 700 nM, 900 nM, 1 uM, 2.5 uM, 5 uM, 7.5 uM, 10 uM, 12.5 uM, 15 uM, 17.5 uM, 20 uM or 22 uM). An induction method using said ectoderm cell induction medium was hereinafter referred to as a LY induction method.\nEctoderm cells were derived from human pluripotent stem cells, including embryogenic pluripotent stem cells, such as H9 cell line and human induced pluripotent stem cells. Human induced pluripotent stem cells were obtained by reprogramming from CD34+ cells according to “Reprogrammed culture medium and culture method of reprogrammed induced multipotential stem cell” (ZL 201910050800.7). In the present invention, “induced pluripotent stem cells” and “pluripotent stem cells” were used interchangeably.\nDuring the induction of ectoderm cells, a 6-well culture plate was coated by using 50 ug/ml polylysine (SIGMA, P6407), and incubated in an incubator at 37° C. for more than 3 hours; then further coated by 5 ug/ml laminin (Laminin, I2020, SIGMA ALDRICH), and incubated in an incubator at 37° C. for more than 3 hours after plating. After the pluripotent stem cells reached 70% coverage, they were digested with EDTA at 37° C. for 5 min, and the cell digestion was terminated with DMEM. After washing and centrifugation, the cells were re-plated in the T25 culture plate at 2×10^5 cells per flask. The neural stem cell induction medium of the present invention was used for induction, and replaced with fresh induction medium every day until lamellar ectoderm cells were formed.\nThe effect of different concentrations of LY2157299 on the formation of ectoderm cells was detected by Q-PCR. The ectoderm cells obtained from the induced pluripotent stem cells in Example 2 by using different concentrations of LY2157299 in the LY induction method and LSB induction method were respectively extracted with RNeasy Mini or Micro Kit (QIAGEN) for total RNA, and cDNA was synthesized by […] RNA via SuperScript III First-Strand Synthesis System (Invitrogen). SYBR Premix Ex Taq (TaKaRa) and Thermal Cycler Dice Real Time System (TaKaRa) were used for labeling and reaction by Quantitative PCR, and beta-Actin was used as internal control. All data were analyzed by delta-Ct method. Triplicates were used for each group of experiments, and ANOVA was performed."}, "ectoderm cells [3]": {"tested_on": "ectoderm cells", "experiment": "Differentiation of the ectoderm cells into neural stem cells (neural rosettes, immunofluorescence, Q-PCR)", "format": "cell-based, human", "protocol": "Ectoderm cells could be further cultured to form neural stem cells. In order to identify this ability of ectoderm cells, the ectoderm cells obtained in Example 2.1 were further cultured in vitro by using a NouvNeu-basal base medium supplemented with 7.5 uM LY2157299 and 0.5-20 uM JW55 (with an optimal concentration of 5 uM) until a neural rosette-like structure was formed. The LSB induction method was used as a control. […]\nTranscription changes of different marker genes during induction from ectoderm cells to neural stem cells were detected by Q-PCR. […] SYBR Premix Ex Taq (TaKaRa) and Thermal Cycler Dice Real Time System (TaKaRa) were used for labeling and reaction by Quantitative PCR, and beta-Actin was used as internal control. All data were analyzed by delta-Ct method. […]"}, "photoreceptor cells": {"tested_on": "photoreceptor cells", "experiment": "Cyquant cell viability assay during induction of photoreceptor cells", "format": "cell-based, human", "conditions": "Cyquant test, FIGS. 6e-6g", "source_text": "The Cyquant test was also used to detect the effect of progesterone, putrescine and Optiferrin on cell viability, so as to study the effects of different concentrations of progesterone, putrescine and Optiferrin on the physiological state of cells during the induction of photoreceptor cells."}, "[4]": {"experiment": "Osmotic pressure of the culture system by freezing point osmometer", "format": "physicochemical", "design": "osmotic pressure of the culture system: dose or concentration left out as unconfirmed", "protocol": "A screening culture system was prepared by using different concentration gradients of sodium chloride while maintaining the optimal concentration of other components. The effect of different concentrations of sodium chloride on the osmotic pressure of culture system was detected by using an automatic freezing point osmometer (FM-8P, Shanghai Medical University Instrument Co., Ltd.), and specific operations were performed according to the product manual (FM-8P, Shanghai Medical University Instrument Co., Ltd.)."}, "[5]": {"tested_on": "human pluripotent stem cells", "experiment": "Cyquant cell viability assay during ectoderm induction, long-term culture", "format": "cell-based", "conditions": "for number of cells induced versus concentration: Cyquant test, FIGS. 6c-6d", "protocol": "A screening culture system was prepared by using different concentration gradients of insulin or vitamin C while maintaining the optimal concentration of other components. Ectoderm induction was performed according to the method in Example 2.1. The cell viability was quantitatively detected by Cyquant assay to study the effects of insulin or vitamin C on the physiological state of cells during long-term cell culture. A 96-well opaque cell culture plate was coated, and then the cells are inoculated at 5×10^4 cells per well, wherein parallel triplicates were set up (the average of the three groups was calculated as the data). The steps in Example 2.1 were repeated with the culture conditions of 37° C., 5% CO2. Samples were taken at day 1, day 5, day 10 and day 20, respectively, and the cell viability detection was carried out by CyQuant Kit (Invitrogen, X12223) according to the instruction manual, and data were read by SpectraMax i3 Multi-Mode Microplate Reader (VWR, ID3-STD). […] Therefore, in combination with cost factors, the insulin or vitamin C in the basal medium of the present invention was the optimal concentration."}},
  "note": "Entries after “also recorded” stand apart in the source; their conditions may differ.",
  "data": [
    {"molecule": "CC1(C)CCC(C)(C)c2cc(C(=O)Nc3ccc(C(=O)O)cc3)ccc21", "note": "[AM580]", "values": [
      {"measurement": "marker PAX6 versus concentration", "setting": "ectoderm cells [1]; Q-PCR, FIG. 3f", "result": "positively correlated"},
      {"measurement": "apoptotic markers versus concentration", "setting": "ectoderm cells [1]; Q-PCR, FIG. 3g", "result": "positively correlated"},
      {"measurement": "expression of photoreceptor cell-specific marker genes", "setting": "ectoderm cells [1]; Q-PCR, compared with RA control, FIG. 4", "result": "could induce the expression of multiple photoreceptor cell-specific marker genes, which was not significantly lower than that of the RA control"},
      {"measurement": "morphology of differentiated cells", "setting": "ectoderm cells [1]; appropriate concentration, FIG. 3d", "result": "uniformly differentiated photoreceptor cells with short axons"},
      {"measurement": "apoptosis", "setting": "ectoderm cells [1]; concentration too high", "result": "lead to apoptosis"},
      {"measurement": "morphology of differentiated cells", "setting": "ectoderm cells [1]; excessively high concentration, FIG. 3e", "result": "results in stress in differentiated cells"},
      {"measurement": "protein expression of photoreceptor markers", "setting": "ectoderm cells [1]; fluorescent immunoassay, FIG. 5", "result": "same protein expression patterns with that in the RA control group"},
      {"measurement": "optimal concentration of AM580", "setting": "ectoderm cells [1]; induction of photoreceptor cells, screening of different concentrations (FIG. 3)", "result": 0.5, "unit": "µM"},
      {"measurement": "morphology of differentiated cells", "setting": "ectoderm cells [1]; low concentration, FIG. 3c", "result": "differentiation into mixed cells including cortical neurons"}
    ]},
    {"molecule": "Cc1cccc(-c2nn3c(c2-c2ccnc4ccc(C(N)=O)cc24)CCC3)n1", "note": "[LY2157299, 4-(2-(6-methylpyridin-2-yl)-5,6-dihydro-4H-pyrrolo[1,2-b]pyrazol-3-yl) quinoline-6-carboxamide]", "values": [
      {"measurement": "ectoderm markers versus concentration", "setting": "[2]; Q-PCR, FIG. 2f", "result": "positively correlated"},
      {"measurement": "apoptotic markers versus concentration", "setting": "[2]; Q-PCR, FIG. 2g", "result": "positively correlated"},
      {"measurement": "formation of ectoderm cells (morphology)", "setting": "[2]; appropriate concentration, FIG. 2d", "result": "uniformly differentiated ectoderm cells"},
      {"measurement": "formation of ectoderm cells (morphology)", "setting": "[2]; excessively high concentration, FIG. 2e", "result": "promote the differentiation of ectoderm cells into neural cells"},
      {"measurement": "cell apoptosis", "setting": "[2]; high concentration", "result": "induced cell apoptosis"},
      {"measurement": "optimal concentration of LY2157299", "setting": "[2]; induction of ectoderm cells, screening of different concentrations (FIG. 2)", "result": 7.5, "unit": "µM"},
      {"measurement": "formation of ectoderm cells (morphology)", "setting": "[2]; low concentration, FIG. 2c", "result": "differentiation into mixed cell including ectodermal cells; also recorded: the ectoderm could not be completely formed"},
      {"measurement": "expression of neural stem cell markers compared with the control method", "setting": "ectoderm cells [3]; Q-PCR, FIGS. 1e-1f", "result": "slightly increase the expression of neural stem cell markers"},
      {"measurement": "neural stem cell markers after formation of neural rosettes", "setting": "ectoderm cells [3]; immunofluorescence staining, FIGS. 1a-1d", "result": "can express neural stem cell markers Pax6 and Nestin"}
    ]},
    {"molecule": "CC(=O)[C@H]1CC[C@H]2[C@@H]3CCC4=CC(=O)CC[C@]4(C)[C@H]3CC[C@]12C", "note": "[progesterone]", "values": [
      {"measurement": "cell proliferation rate versus concentration", "setting": "photoreceptor cells", "result": "positively correlated"}
    ]},
    {"molecule": "NCCCCN", "note": "[putrescine]", "values": [
      {"measurement": "cell proliferation rate versus concentration", "setting": "photoreceptor cells", "result": "positively correlated"}
    ]},
    {"molecule": "[Cl-].[Na+]", "note": "[sodium chloride]", "values": [
      {"measurement": "osmotic pressure of the culture system versus concentration", "setting": "[4]; concentration gradients, FIG. 6a", "result": "increased linearly"},
      {"measurement": "osmotic pressure of the culture system", "setting": "[4]; sodium chloride concentration", "result": "> 320", "unit": "mOsm/kg"}
    ]},
    {"molecule": "O=C1O[C@H]([C@@H](O)CO)C(O)=C1O", "note": "[vitamin C, L-ascorbic acid]", "values": [
      {"measurement": "number of cells induced versus concentration", "setting": "[5]", "result": "positively correlated"},
      {"measurement": "number of cells compared with the optimal concentration", "setting": "[5]; high concentration", "result": "not significantly different"},
      {"measurement": "state of cells in the late stage of induction", "setting": "[5]; high concentration", "result": "caused the cells to shed in pieces"}
    ]},
    {"molecule": "Optiferrin: component of the NouvNeu-basal base medium (SIGMA)", "values": [
      {"measurement": "cell proliferation rate versus concentration", "setting": "photoreceptor cells", "result": "positively correlated"}
    ]},
    {"molecule": "insulin: component of the NouvNeu-basal base medium", "values": [
      {"measurement": "number of cells induced versus concentration", "setting": "[5]", "result": "positively correlated"},
      {"measurement": "number of cells compared with the optimal concentration", "setting": "[5]; high concentration", "result": "not significantly different"}
    ]}
  ]
}
